ChEMBL document CHEMBL1150184, “CAF-603: a new antifungal carotane sesquiterpene. Isolation and structure elucidation” (1990)
≈ marks a conversion by molar mass, not a printed value.

What was measured:
Assay type in all cases: functional
Candida albicans [1] = assay: Antifungal activity against Candida albicans MCNH2 after 24 hrs in Yeast morphology agar medium by agar dilution method; conditions: MCNH2, 24 h
Candida albicans [2] = assay: Antifungal activity against Candida albicans MCNH3 after 24 hrs in Sabouraud agar medium by agar dilution method; conditions: MCNH3, 24 h
Pichia kudriavzevii [3] = assay: microbe, parasite or virus in culture; conditions: IAM 4801, 24 h
Description: Antifungal activity against Candida krusei IAM 4801 after 24 hrs in Yeast morphology agar medium by agar dilution method

Aspergillus niger [4] = assay: Antifungal activity against Aspergillus niger NHL after 24 hrs in Yeast morphology agar medium by agar dilution method
Candida albicans [5] = assay: microbe, parasite or virus in culture; conditions: NHL 4019, 24 h
Description: Antifungal activity against Candida albicans NHL 4019 after 24 hrs in Sabouraud agar medium by agar dilution method

Candida albicans [6] = assay: microbe, parasite or virus in culture; conditions: IAM 4888, 24 h
Description: Antifungal activity against Candida albicans IAM 4888 after 24 hrs in Sabouraud agar medium by agar dilution method

Candida albicans [7] = assay: Antifungal activity against Candida albicans MCNH3 after 24 hrs in Yeast morphology agar medium by agar dilution method; conditions: MCNH3, 24 h
Rhizopus arrhizus [8] = assay: microbe, parasite or virus in culture; conditions: IAM 6052, 24 h
Description: Antifungal activity against Rhizopus arrhizus IAM 6052 after 24 hrs in Yeast morphology agar medium by agar dilution method

[9] = tested on: Meyerozyma guilliermondii; assay: Antifungal activity against Candida guilliermondii JTD after 24 hrs in Sabouraud agar medium by agar dilution method
Rhizopus arrhizus [10] = assay: microbe, parasite or virus in culture; conditions: IAM 6052, 24 h; remark: listed apart in the source
Description: Antifungal activity against Rhizopus arrhizus IAM 6052 after 24 hrs in Sabouraud agar medium by agar dilution method

Saccharomyces cerevisiae [11] = assay: microbe, parasite or virus in culture; conditions: IAM 4203, 24 h
Description: Antifungal activity against Saccharomyces cerevisiae IAM 4203 after 24 hrs in Yeast morphology agar medium by agar dilution method

Saccharomyces cerevisiae [12] = assay: Antifungal activity against Saccharomyces cerevisiae IAM 4500 after 24 hrs in Yeast morphology agar medium by agar dilution method; conditions: IAM 4500, 24 h
Aspergillus fumigatus [13] = assay: Antifungal activity against Aspergillus fumigatus IAM 2400 after 24 hrs in Yeast morphology agar medium by agar dilution method; conditions: IAM 2400, 24 h
Nakaseomyces glabratus = assay: microbe, parasite or virus in culture; conditions: OUT 6189, 24 h
Description: Antifungal activity against Torulopsis glabrata OUT 6189 after 24 hrs in Sabouraud agar medium by agar dilution method

Candida albicans [14] = assay: Antifungal activity against Candida albicans MCNH2 after 24 hrs in Sabouraud agar medium by agar dilution method; conditions: MCNH2, 24 h
Candida albicans [15] = assay: Antifungal activity against Candida albicans MCNH4 after 24 hrs in Yeast morphology agar medium by agar dilution method; conditions: MCNH4, 24 h
Aspergillus fumigatus [16] = assay: Antifungal activity against Aspergillus fumigatus IAM 2400 after 24 hrs in Sabouraud agar medium by agar dilution method; conditions: IAM 2400, 24 h
Candida tropicalis [17] = assay: microbe, parasite or virus in culture; conditions: IAM 4924, 24 h
Description: Antifungal activity against Candida tropicalis IAM 4924 after 24 hrs in Sabouraud agar medium by agar dilution method

[18] = tested on: Meyerozyma guilliermondii; assay: Antifungal activity against Candida guilliermondii JTD after 24 hrs in Yeast morphology agar medium by agar dilution method
Aspergillus niger [19] = assay: Antifungal activity against Aspergillus niger NHL after 24 hrs in Sabouraud agar medium by agar dilution method
Candida albicans [20] = assay: Antifungal activity against Candida albicans MCNH1 after 24 hrs in Sabouraud agar medium by agar dilution method; conditions: MCNH1, 24 h
Pichia kudriavzevii [21] = assay: microbe, parasite or virus in culture; conditions: IAM 4801, 24 h; remark: listed apart in the source
Description: Antifungal activity against Candida krusei IAM 4801 after 24 hrs in Sabouraud agar medium by agar dilution method

Candida albicans [22] = assay: microbe, parasite or virus in culture; conditions: NHL 4019, 24 h; remark: listed apart in the source
Description: Antifungal activity against Candida albicans NHL 4019 after 24 hrs in Yeast morphology agar medium by agar dilution method

Candida albicans [23] = assay: Antifungal activity against Candida albicans MCNH1 after 24 hrs in Yeast morphology agar medium by agar dilution method; conditions: MCNH1, 24 h
Candida albicans [24] = assay: microbe, parasite or virus in culture; conditions: IAM 4888, 24 h; remark: listed apart in the source
Description: Antifungal activity against Candida albicans IAM 4888 after 24 hrs in Yeast morphology agar medium by agar dilution method

Candida albicans [25] = assay: Antifungal activity against Candida albicans MCNH4 after 24 hrs in Sabouraud agar medium by agar dilution method; conditions: MCNH4, 24 h
Candida tropicalis [26] = assay: microbe, parasite or virus in culture; conditions: IAM 4924, 24 h; remark: listed apart in the source
Description: Antifungal activity against Candida tropicalis IAM 4924 after 24 hrs in Yeast morphology agar medium by agar dilution method

Saccharomyces cerevisiae [27] = assay: microbe, parasite or virus in culture; conditions: IAM 4203, 24 h; remark: listed apart in the source
Description: Antifungal activity against Saccharomyces cerevisiae IAM 4203 after 24 hrs in Sabouraud agar medium by agar dilution method

Saccharomyces cerevisiae [28] = assay: Antifungal activity against Saccharomyces cerevisiae IAM 4500 after 24 hrs in Sabouraud agar medium by agar dilution method; conditions: IAM 4500, 24 h

Compound | MIC (Candida albicans [1]) [µg/mL] | MIC (Candida albicans [2]) [µg/mL] | MIC (Pichia kudriavzevii [3]) [µg/mL] | MIC (Aspergillus niger [4]) [µg/mL] | MIC (Candida albicans [5]) [µg/mL] | MIC (Candida albicans [6]) [µg/mL] | MIC (Candida albicans [7]) [µg/mL] | MIC (Rhizopus arrhizus [8]) [µg/mL] | MIC [9] [µg/mL] | MIC (Rhizopus arrhizus [10]) [µg/mL] | MIC (Saccharomyces cerevisiae [11]) [µg/mL] | MIC (Saccharomyces cerevisiae [12]) [µg/mL] | MIC (Aspergillus fumigatus [13]) [µg/mL] | MIC (Nakaseomyces glabratus) [µg/mL] | MIC (Candida albicans [14]) [µg/mL] | MIC (Candida albicans [15]) [µg/mL] | MIC (Aspergillus fumigatus [16]) [µg/mL] | MIC (Candida tropicalis [17]) [µg/mL] | MIC [18] [µg/mL] | MIC (Aspergillus niger [19]) [µg/mL] | further results
CC1=CC[C@@]2(C)C[C@H](O)[C@@](O)(C(C)C)[C@@H]2CC1 | 1.56 (≈ 6.54 µM) | 12.5 (≈ 52.4 µM) | 25 (≈ 105 µM) | 12.5 (≈ 52.4 µM) | 0.8 (≈ 3.36 µM) | 12.5 (≈ 52.4 µM) | 3.13 (≈ 13.1 µM) | > 100 | > 100 | > 100 | 1.56 (≈ 6.54 µM) | > 100 | 12.5 (≈ 52.4 µM) | 50 (≈ 210 µM) | 3.13 (≈ 13.1 µM) | 1.56 (≈ 6.54 µM) | 25 (≈ 105 µM) | > 100 | > 100 | 100 (≈ 420 µM) | MIC (Candida albicans [20]): 6.25 µg/mL (≈ 26.2 µM); MIC (Pichia kudriavzevii [21]): 25 µg/mL (≈ 105 µM); MIC (Candida albicans [22]): 0.4 µg/mL (≈ 1.68 µM); MIC (Candida albicans [23]): 3.13 µg/mL (≈ 13.1 µM); MIC (Candida albicans [24]): 1.56 µg/mL (≈ 6.54 µM); MIC (Candida albicans [25]): 6.25 µg/mL (≈ 26.2 µM); MIC (Candida tropicalis [26]): 50 µg/mL (≈ 210 µM); MIC (Saccharomyces cerevisiae [27]): 3.13 µg/mL (≈ 13.1 µM); MIC (Saccharomyces cerevisiae [28]): > 100 µg/mL
Clc1ccc(COC(Cn2ccnc2)c2ccc(Cl)cc2Cl)c(Cl)c1.O=[N+]([O-])O (stereo not drawn) [MICONAZOLE NITRATE] | 12.5 | 3.13 | 0.8 | 3.13 | 0.05 | 6.25 | 12.5 | 0.2 | 6.25 | 0.4 | 1.56 | 12.5 | 1.56 | 6.25 | 6.25 | 6.25 | 0.8 | 12.5 | 3.13 | 3.13 | MIC (Candida albicans [20]): 12.5 µg/mL; MIC (Pichia kudriavzevii [21]): 0.8 µg/mL; MIC (Candida albicans [22]): < 0.05 µg/mL; MIC (Candida albicans [23]): 12.5 µg/mL; MIC (Candida albicans [24]): 3.13 µg/mL; MIC (Candida albicans [25]): 6.25 µg/mL; MIC (Candida tropicalis [26]): 6.25 µg/mL; MIC (Saccharomyces cerevisiae [27]): 6.25 µg/mL; MIC (Saccharomyces cerevisiae [28]): 3.13 µg/mL
